This is an account of results in PMC7048242 (Cancer letters, 2018).

In one data set the test system is S100B promoter. Put plainly: HTS cell-based S100B promoter-driven luciferase reporter assay. On the set-up: species or system human.
Data set [1] relates to S100B. Put plainly: S100B expression in GL261 cells. It is filed as cell-based, mouse.
In the next data set the test system is U251 glioma cells. As to conditions: 5 μM, U251 (not shown).
A further data set deals with CCL2. To be noted: GL261 cells, 48 h incubation.
In data set [2] the test system is intracranial GL261 gliomas.
In data set [3] the test system is tumor-associated myeloid-derived cells.
The subject of data set [4] is tumor-associated leukocytes. To be noted: 30 mg/kg/14 days, LPS 0.5 μg/ml 24 h, q-PCR.
The test system of a further data set is K-Luc cells. As to conditions: K-Luc cell line.
The nature of another data set: in vivo. To be noted: C57BL/6, mouse, po, 30 mg/kg.
Data set [5] has as its system S100B. To be noted: cited from earlier work.
The mark [6] stands for this setting: contralateral brain tissue without tumor.

For `NC[C@H](O)c1ccc(O)c(O)c1` [NE, norepinephrine], the “S100B promoter activity in U251-Luc” value in the data set with S100B promoter (NE added every 3 h, luciferase measured in 12 h) is “induced”. Further, in the data set with S100B [1] (NE added every 3 h, 24 h, Western analysis), the “S100B expression in GL261” value is reported as “induced”.

Take `CNCC[C@H](Oc1cccc2ccccc12)c1cccs1` [Duloxetine]: the S100B promoter activity result in the data set on S100B promoter (5 μM, luciferase measured 24 h after treatment) is given as “inhibited”. In the data set on S100B promoter (Homo sapiens, U-251), the IC50 came to 10 µM. In addition, the S100B expression result in the data set with S100B [1] (GL261 cells, low concentrations, 24 h (qPCR), 48 h (Western, ELISA, immunostains)) was “inhibited”. The Cell proliferation entry with GL261-Luc cells (GL261, Dul concentration < 10 μM) is recorded as “not significantly inhibited”. The molecule also returned an LD50 in the data set on GL261-Luc cells (GL261-Luc cells, 24 h incubation) of 25.1 µM. The Cytotoxicity result with U251 glioma cells is on record as “without causing cytotoxicity”. For the same molecule, in the data set with CCL2, the CCL2 expression result is on record as “inhibited”. In addition, in data set [2] (i.c. GL261, 14 days treatment started a day after implantation), the Tumor growth result is “significantly decreased”. For the same molecule, the Animal survival entry in [2] (i.c. GL261, high doses (30 mg/kg/14 days), started a day after implantation) is recorded as “improved”. Further, the “CCL2 expression in GL261 gliomas (immunohistochemistry)” value in the data set with S100B, RAGE, CCL2 (30 mg/kg, two weeks) was “decrease”. Also, the “Total brain S100B, RAGE or CCL2 protein levels” value in the data set on S100B, RAGE, CCL2 (GL261 tumor-bearing mice, 5 or 30 mg/kg/14 days, tumor and peritumoral tissue) is listed as “did not significantly inhibit”. In addition, the “Serum S100B and soluble RAGE (sRAGE) levels” value in the data set on S100B, RAGE, CCL2 (GL261 tumor-bearing mice, two-week treatment) was “Nor mouse serum S100B and soluble RAGE (sRAGE) levels changed”. Besides, the “S100B and RAGE in i.c. GL261 tumors (histochemistry)” value with S100B, RAGE, CCL2 (two-week treatment, tumor cells) is reported as “effectively inhibited”. Also, the “Proportion of macrophages, monocytic myeloid-derived cells and neutrophils in GL261 gliomas” value in [3] (30 mg/kg x 14 days, FACS) was “decreased”. For the same molecule, in [3] (Nanostring, GL261 tumors (not in TME)), the “Pathway Scores for innate and adaptive immunity processes in tumors” value is listed as “significantly higher”. Also, in data set [4], the “Il-1β expression by tumor-associated leukocytes” value is on record as “higher levels”; the “Il-6, Il-10 and Tgf-β expression by tumor-associated leukocytes” value was “lower levels”. Besides, the “Cell proliferation in vitro” value in the data set with K-Luc cells is “modest inhibitory effect”. Besides, the “Overall tumor levels of S100B and RAGE” value in the data set on K-Luc gliomas (K-Luc tumor-bearing mice, daily for 14 days) was “did not significantly change”. The “Growth of K-Luc tumors” value with K-Luc gliomas (two-week treatment) is “did not significantly inhibit”. Moreover, in “in vivo” (GL261 tumor), the concentration at 0.5 h was determined as 48.8 µM, the concentration at 2 h came out at 70.8 µM, the concentration at 6 h turned out to be 24.9 µM and the concentration at 12 h worked out at 10 µM. In “in vivo” (setting [6]), this molecule yielded a concentration at 0.5 h of 36.3 µM, a concentration at 2 h of 65.9 µM, a concentration at 6 h of 24.2 µM and a concentration at 12 h of 9.64 µM. Moreover, in the data set “in vivo” (plasma), the concentration at 0.5 h stood at 3.04 µM, the concentration at 2 h was determined as 2.12 µM, the concentration at 6 h was determined as 1.28 µM and the concentration at 12 h was 0.39 µM.

As for `CNCCC(Oc1ccc(C(F)(F)F)cc1)c1ccccc1` (centres unmarked) [fluoxetine], the “S100B expression in rat astrocytes in vivo” value with S100B [5] was “stimulated”.
